Measured values from US7220780B2, “Naaladase inhibitors for treating retinal disorders and glaucoma” (Guilford Pharmaceuticals Inc., priority 2000, dated 2007).

Key:
NAALADase = NAALADase (Rattus norvegicus, UniProt P70627); test: In vitro inhibition of NAALADase activity; type: biochemical; conditions: for Ki: read-out: K1
male Brown Norway rats [1] = test: Experimental rat glaucoma (IOP elevation by hypertonic saline), optic nerve fiber counting; type: in vivo; conditions: 8 week group, 10 mg/kg daily i.p.
Description: (§1) All experiments complied with the Association for Research in Vision and Ophthalmology Statement for the Use of Animals in Ophthalmic and Vision Research. 82 male Brown Norway rats (Rattus norvegicus), each weighing approximately 250 gm, were treated using procedures approved by the Animal Care Committee of the Johns Hopkins University School of Medicine. The rats were housed with a 12 hour light/12 hour dark cycle and fed ad libitum .
EXPERIMENTAL GLAUCOMA: Unilateral elevation of IOP was produced in 56 rats by microinjection of hypertonic saline into episcleral veins, following procedures described in Morrison, J. et al., IOVS (March 1998) 39:526-531. Beginning on the day of IOP elevation, the rats were treated daily with intraperitoneal injections of either a vehicle (23 rats with 50 mM HEPES-buffered saline) or a NAALADase inhibitor (11 rats with 10 mg/kg of 2-[[(2,3,4,5,6-pentafluorobenzyl)hydroxyphosphinyl]-methyl]pentanedioic acid (“Compound A”) and 22 rats with 10 mg/kg of 2-(3-sulfanylpropyl)pentanedioic acid (“Compound B”)). 11 saline treated rats, 11 Compound A treated rats and 11 Compound B treated rats were sacrificed at 8 weeks, and the remaining rats at 12 weeks, after initial IOP elevation.
(§2) OPTIC NERVE COUNTING: The rats were sacrificed by exsanguination under deep pentobarbital anesthesia. They were perfused through the heart with 2% paraformaldehyde/2% glutaraldehyde in 0.1 M phosphate buffer, pH 7.2, and the eyes with attached optic nerves were removed. A cross-section of the optic nerve from both experimental (glaucoma or transection) and control eyes was removed 1.5 mm posterior to the globe, 1 mm in thickness, and post-fixed in 2% osmium tetroxide in buffer. These were processed into epoxy resin, sectioned at 1 micron and stained with toluidine blue.
(§3) The area of the optic nerve cross-section was measured by outlining its outer border at 10×magnification on an image analysis system (Universal Imaging Corp., Westchester, Pa.) with Synsys digital camera and Metamorph software. Three area measurements were taken and the mean value was determined. To measure the density and fiber diameter distributions, images were captured with a 100× phase contrast objective from 10 different areas of each nerve. These were edited to eliminate non-neural objects and the size of each axon internal to the myelin sheath (its minimum diameter) and the density of axons/square mm were calculated for each image and nerve. The mean density was multiplied by total nerve area to yield fiber number for each nerve. The total fiber number in glaucoma or transection nerves was compared to the normal, fellow eye of each rat to yield a percent loss value. The number of axons counted among the 10 images was an approximately 20% sample of the 80-90,000 axons in normal rat nerves. The person measuring axon number was masked to the protocol conducted on the nerves.

male Brown Norway rats [2] = test: Optic nerve transection in rats, optic nerve fiber counting; type: in vivo, Rattus norvegicus; conditions: for FIBER NUMBER ± SEM / PERCENT DIFFERENCE ± SEM: 10 mg/kg daily i.p.; for PERCENT DIFFERENCE ± SEM: transected vs normal eye
Description: as §1
OPTIC NERVE TRANSECTION: The optic nerve was transected unilaterally in 26 rats under intraperitoneal pentobarbital anesthesia. The conjunctiva was opened with scissors and the optic nerve exposed by traction on extraocular muscles. The transection was performed with microscissors 5 mm posterior to the globe, with specific attention to avoidance of injury to major ocular blood vessels. Immediately after transection, the retina was examined ophthalmoscopically to assure that the retinal arterial blood supply was not disrupted. The conjunctiva was closed with absorbable suture and the eye dressed with antibiotic ointment. Beginning on the day of transection, the rats were treated daily with intraperitoneal injections of either a vehicle (9 rats with 50 mM HEPES-buffered saline) or a NAALADase inhibitor (8 rats with 10 mg/kg of Compound A and 9 rats with 10 mg/kg of Compound B). 5 saline treated rats, 3 Compound A treated rats and 4 Compound B treated rats were sacrificed at 2 weeks, and the remaining rats at 4 weeks, after transection.
as §2, §3

[3] = 2 weeks survival after transection
[4] = 4 weeks survival after transection

Sequence of NAALADase (P70627 whole entry): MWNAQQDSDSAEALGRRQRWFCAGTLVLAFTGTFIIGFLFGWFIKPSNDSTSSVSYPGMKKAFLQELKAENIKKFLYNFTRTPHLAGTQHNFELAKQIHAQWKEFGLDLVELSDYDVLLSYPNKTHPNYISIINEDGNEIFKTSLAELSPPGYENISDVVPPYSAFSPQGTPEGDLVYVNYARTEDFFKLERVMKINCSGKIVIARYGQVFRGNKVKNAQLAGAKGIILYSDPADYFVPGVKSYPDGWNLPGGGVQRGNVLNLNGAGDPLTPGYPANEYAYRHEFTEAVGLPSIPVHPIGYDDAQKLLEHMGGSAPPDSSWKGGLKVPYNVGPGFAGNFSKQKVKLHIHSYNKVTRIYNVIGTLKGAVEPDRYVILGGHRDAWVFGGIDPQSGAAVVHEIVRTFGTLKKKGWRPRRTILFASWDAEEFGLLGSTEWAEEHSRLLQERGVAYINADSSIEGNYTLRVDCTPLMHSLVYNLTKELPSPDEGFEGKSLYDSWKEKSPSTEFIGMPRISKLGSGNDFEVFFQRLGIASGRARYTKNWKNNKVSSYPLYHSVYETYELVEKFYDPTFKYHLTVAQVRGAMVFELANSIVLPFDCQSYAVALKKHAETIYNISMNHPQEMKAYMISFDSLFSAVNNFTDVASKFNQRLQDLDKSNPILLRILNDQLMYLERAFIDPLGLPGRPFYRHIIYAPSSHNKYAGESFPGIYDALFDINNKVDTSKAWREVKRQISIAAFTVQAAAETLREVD

Molecule | Ki (NAALADase) [µM] | also measured
O=C(O)c1cc(OCCCS)cc(C(=O)O)c1 [5-(3-mercaptopropoxy)-1,3-benzenedicarboxylic acid] | 3.3 | 
O=C(O)c1cc(CCS)cc(C(=O)O)c1 [5-(2-mercaptoethyl)-1,3-benzenedicarboxylic acid] | 5.1 | 
O=C(O)c1cc(CNCc2ccco2)cc(C(=O)O)c1 [5-[[(2-furanylmethyl)amino]methyl]-1,3-benzenedicarboxylic acid] | 50 | 
O=C(O)c1cc(OCCS)cc(C(=O)O)c1 [5-(2-mercaptoethoxy)-1,3-benzenedicarboxylic acid] | 14.5 | 
O=C(O)c1ccc(C(=O)c2ccc(Oc3ccc(C(=O)O)c(C(=O)O)c3)cc2)c(C(=O)O)c1 [4-[4-(2,4-dicarboxybenzoyl)phenoxy]-1,2-benzenedicarboxylic acid] | 1.17 | 
O=C(O)Cc1cc(C(=O)O)ccc1C(=O)O [2-carboxymethyl-1,4-benzenedicarboxylic acid] | 9 | 
O=C(O)c1cc(CS)cc(C(=O)O)c1 [5-mercaptomethyl-1,3-benzenedicarboxylic acid] | 6.5 | 
O=C(O)c1ccc(Sc2ccccc2C(=O)O)c(C(=O)O)c1 [4-[(2-carboxyphenyl)thio]-1,3-benzenedicarboxylic acid] | 3.98 | 
O=C(O)c1cc(CP(=O)(O)O)cc(C(=O)O)c1 [5-phosphonomethyl-1,3-benzenedicarboxylic acid] | 3.1 | 
O=C(Cc1cc(C(=O)O)cc(C(=O)O)c1)NO [5-[2-(hydroxyamino)-2-oxoethyl]-1,3-benzenedicarboxylic acid] | 12 | 
3-(2-Carboxy-4-hydroxycarbamoyl-butyl)-benzoic acid |  | IC50 (NAALADase): 0.0478 µM
O=C(O)c1cc(C(=O)O)cc(C(=O)NO)c1 [5-[(hydroxyamino)-carbonyl]-1,3-benzenedicarboxylic acid] | 1 | 
O=C(O)c1ccc(C(=O)O)c(Sc2ccccc2C(=O)O)c1 [2-[(2-carboxyphenyl)thio]-1,4-benzenedicarboxylic acid] | 0.572 | 
O=C(O)c1ccc(OCCCSSCCCOc2ccc(C(=O)O)cc2C(=O)O)c(C(=O)O)c1 [4-[3-[[3-(2,4-dicarboxyphenoxy)-propyl]-dithio]propoxy]-1,3-benzenedicarboxylic acid] | 3.75 | 
O=C(O)CCC(CP(=O)(O)Cc1c(F)c(F)c(F)c(F)c1F)C(=O)O (stereo not drawn) [Compound A, 2-[[(2,3,4,5,6-pentafluorobenzyl)hydroxyphosphinyl]-methyl]pentanedioic acid] |  | FIBER NUMBER ± SEM (male Brown Norway rats [1]): 79156 ± 2436; PERCENT DIFFERENCE ± SEM (male Brown Norway rats [1]; fiber number glaucoma vs normal eye, positive = fewer fibers in glaucoma eye): −1.82 ± 2.92%; IOP INTEGRAL DIFFERENCE ± SEM (male Brown Norway rats [1]; glaucoma eye vs normal eye): 85 ± 37.5 mm Hg—days; remaining axons relative to the saline-treated rats (male Brown Norway rats [2]; 2 weeks after transection): 3 times; FIBER NUMBER ± SEM (male Brown Norway rats [2]; [3]): 26,426 ± 13,293; PERCENT DIFFERENCE ± SEM (male Brown Norway rats [2]; [3]): 65.3 ± 17.8%; FIBER NUMBER ± SEM (male Brown Norway rats [2]; [4]): 13,599 ± 3,519; PERCENT DIFFERENCE ± SEM (male Brown Norway rats [2]; [4]): 82.4 ± 4.0%
O=C(O)c1ccc(C(=O)O)c(S(=O)(=O)c2cc(C(=O)O)ccc2C(=O)O)c1 [2-[(2,5-dicarboxyphenyl)sulfonyl]-1,4-benzenedicarboxylic acid] | 1.87 | 
O=C(O)CNc1cc(C(=O)O)cc(C(=O)O)c1 [5-[(carboxymethyl)amino]-1,3-benzenedicarboxylic acid] | 100 | 
O=C(O)c1ccc(S(=O)(=O)c2cc(C(=O)O)ccc2C(=O)O)cc1 [2-[(4-carboxyphenyl)sulfonyl]-1,4-benzenedicarboxylic acid] | 2.37 | 
O=C(O)c1cc(C(=O)O)cc(P(=O)(O)O)c1 [5-phosphono-1,3-benzenedicarboxylic acid] | 14 | 
O=C(O)c1ccc(CCS)c(C(=O)O)c1 [4-(2-mercaptoethyl)-1,3-benzenedicarboxylic acid] | 0.116 | 
